Laboratory results taken from patent US20230183243A1, “HETEROARYL DERIVATIVES AND PHARMACEUTICAL COMPOSITION COMPRISING SAME AS ACTIVE INGREDIENT” (VORONOI INC., priority 2019, published 2023).
Like-named read-outs stand apart in the source and are kept apart here.

How the values were obtained:
[1] = system: MDA-MB-231 cells; assay: Inhibition of proliferation of triple-negative breast cancer cells, CellTiter-Glo; format: cell-based; conditions: Homo sapiens, 120 h; MDA-MB-231, cultured for 5 days
Summary of the method: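 MDA-MB-231 cells pre-cultured 24 h (5% CO2, 37 °C), then exposed to compound for 5 days at 12 three-fold dilutions, final 10 μM to 0.05 nM. Viability read by CellTiter-Glo luminescence after 10 min at 37 °C; growth inhibition calculated relative to untreated solvent-control cells.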

[2] = system: A549; assay: Cell proliferation inhibition, carcinomas other than TNBC; format: cell-based
Experimental: (§1) To check an ability to inhibit the growth of (MDA-MB-231) cells in two triple-negative breast cancer cell lines, a test was performed, as follows. Cells were seeded in 180 μL of a culture broth at a density of 2,000 to 3,000 cells/well in a white clear bottom 96-well plate (Corning) according to the growth ability of each cell, and then cultured for 24 hours under conditions of 5% CO2 and 37° C. Thereafter, the compound was prepared by diluting a 10 mM stock solution three-fold with 100% DMSO at a total of 12 concentrations so that a peak concentration of the compound was in a range of 10 mM to 0.05 μM, and the diluted compound was then diluted in each cell culture medium so that a final concentration of the compound was in a range of 100 μM to 0.5 nM. 20 μL of a diluted solution diluted with a medium was added to the cell solution in which cells were seeded in the 96-well plate on the previous day so that a final concentration of the diluted solution was in a range of 10 μM to 0.05 nM. Each of the cells was cultured for 5 days. To check cell viability, a mixture provided in a CellTiter-Glo® Luminescent Cell Viability Assay Kit (Promega) was added to each of the cultured cell media, and cultured for another 10 minutes under a condition of 37° C. Then, a degree of luminescence (fluorescence) was measured. A degree of inhibition of the cell growth according to the treatment concentration of each of the compounds was calculated based on the fluorescence of the solvent control cells which were not treated with the compound. In this case, the concentration of each of the compounds inhibiting 50% of the cell growth was determined to be a GI50 (nM) value, and calculated using Prism (Version 7.01; GraphPad) software.
(§2) Next, the activities of the Example compounds against various types of carcinomas other than the TNBC were evaluated in a similar manner as described above. In the following table, the following active value range (GI50 (nM)) was used to evaluate cell proliferation inhibitory activity.

[3] = system: BxPC3; assay: as above; format: cell-based
Experimental: as §1, §2

[4] = system: DU145; assay: as above; format: cell-based
Experimental: as §1, §2

[5] = system: HCT116; assay: as above; format: cell-based
Experimental: as §1, §2

[6] = molecular target: T1, TTK (Homo sapiens, UniProt P33981); assay: TTK enzyme activity, ADP-Glo kinase assay; format: biochemical; design: purchased SignalChem T20-10G; conditions: purified human TTK, ATP 10 μM, 25° C., 2 hours
T1 sequence (P33981 1-857): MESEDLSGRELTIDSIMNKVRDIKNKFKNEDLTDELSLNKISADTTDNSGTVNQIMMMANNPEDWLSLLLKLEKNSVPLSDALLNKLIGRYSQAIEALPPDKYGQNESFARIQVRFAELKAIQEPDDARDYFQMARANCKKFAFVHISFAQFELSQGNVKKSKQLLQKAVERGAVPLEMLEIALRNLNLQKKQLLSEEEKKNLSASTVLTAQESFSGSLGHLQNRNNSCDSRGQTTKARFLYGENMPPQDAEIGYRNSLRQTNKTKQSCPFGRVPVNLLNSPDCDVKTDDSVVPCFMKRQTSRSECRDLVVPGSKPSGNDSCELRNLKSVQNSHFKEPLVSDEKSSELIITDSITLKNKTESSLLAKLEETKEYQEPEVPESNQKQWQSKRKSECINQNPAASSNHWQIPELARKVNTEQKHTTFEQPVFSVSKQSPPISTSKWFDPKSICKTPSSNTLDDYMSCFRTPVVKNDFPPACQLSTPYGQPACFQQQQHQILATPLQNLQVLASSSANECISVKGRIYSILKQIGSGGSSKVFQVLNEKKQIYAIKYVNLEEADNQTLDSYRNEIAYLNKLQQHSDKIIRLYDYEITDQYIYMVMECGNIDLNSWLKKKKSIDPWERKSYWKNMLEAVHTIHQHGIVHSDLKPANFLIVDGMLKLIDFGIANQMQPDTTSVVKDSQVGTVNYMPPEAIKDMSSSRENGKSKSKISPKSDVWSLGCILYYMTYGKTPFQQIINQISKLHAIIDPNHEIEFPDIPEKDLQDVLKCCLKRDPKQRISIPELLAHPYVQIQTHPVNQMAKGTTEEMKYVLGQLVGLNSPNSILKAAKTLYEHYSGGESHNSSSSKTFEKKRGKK
Summary of the method: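 ADP-Glo read-out; percent inhibition at each compound concentration was relative to the solvent-only control. The reactions contained 25 ng enzyme, 0.2 μg substrate and 10 μM ATP in 40 mM Tris-HCl pH 7.4 with 20 mM MgCl2, 0.5 mg/mL BSA and 50 μM DTT, and ran 2 h at 25 °C.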

[7] = system: SHP-77; assay: Inhibition of proliferation of small cell lung cancer cells, CellTiter-Glo; format: cell-based; conditions: Homo sapiens, SHP77, 120 h; SHP-77, cultured for 5 days
Summary of the method: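 SHP-77 cells at 2,000–3,000 cells/well, cultured 24 h at 37° C, 5% CO2, then given 12 threefold compound dilutions, final 10 μM to 0.05 nM, for 5 days. Viability by CellTiter-Glo luminescence relative to solvent control. GI50 from concentration–response.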

GI50 [1] | GI50 ([2]; Homo sapiens) | GI50 ([3]; Homo sapiens, BXPC-3) | GI50 ([4]; Homo sapiens, DU-145) | GI50 ([5]; Homo sapiens, HCT-116) | IC50 [6] | GI50 [7] | GI50 [2] | GI50 ([3]; BxPC3) | GI50 ([4]; DU145) | GI50 ([5]; HCT116) | SMILES
< 100 nM | < 100 nM | < 100 nM | < 100 nM | < 100 nM | < 50 nM | – | – | – | – | – | COc1cc(N2CCCC2=O)ccc1Nc1nc(NC2CCCC2)c2c(C#N)c[nH]c2n1 [Example 55, 4-(cyclopentylamino)-2-((2-methoxy-4-(2-oxopyrrolidin-1-yl)phenyl)amino)-7H-pyrrolo[2,3-d] pyrimidine-5-carbonitrile]
– | – | – | – | – | – | – | < 100 nM | < 100 nM | < 100 nM | < 100 nM | COc1cc(N2CCCC2=O)ccc1Nc1nc(NC2CCCCC2)c2cc[nH]c2n1 [Example 48]
– | 100 to 1000 nM | 100 to 1000 nM | 100 to 1000 nM | 100 to 1000 nM | – | – | – | – | – | – | COc1cc(N2CCCC2=O)ccc1Nc1cc(NC2CCCCC2)c2c(C(F)(F)F)c[nH]c2n1 [Example 62, 1-(4-((4-(cyclohexylamino)-3-(trifluoromethyl)-1H-pyrrolo[2,3-b]pyridin-6-yl)amino)-3-methoxyphenyl) pyrrolidin-2-one]
– | < 100 nM | < 100 nM | < 100 nM | < 100 nM | – | – | – | – | – | – | COc1cc(N2CCCC2=O)ccc1Nc1nc(NC2CCCC2)c2cc[nH]c2n1 [Example 47, 1-(4-((4-(cyclopentylamino)-7H-pyrrolo[2,3-d]pyrimidin-2-yl)amino)-3-methoxyphenyl) pyrrolidin-2-one]
< 100 nM | – | – | – | – | < 50 nM | < 100 nM | – | – | – | – | Cn1cc(-c2ccc(Nc3nc(NC4CCC(F)(F)C4)c4c(C#N)c[nH]c4n3)c3c2OCCO3)cn1 (centres unmarked) [Example 159, 4-((3,3-difluorocyclopentyl)amino)-2-((8-(1-methyl-1H-pyrazol-4-yl)-2,3-dihydrobenzo[b][1,4]dioxin-5-yl)amino)-7H-pyrrolo[2,3-d] pyrimidine-5-carbonitrile]
< 100 nM | – | – | – | – | 50 to 200 nM | < 100 nM | – | – | – | – | Cn1nccc1-c1ccc(Nc2nc(NCC3CCC3)c3c(C#N)c[nH]c3n2)c2c1OCCO2 [Example 100, 4-((cyclobutylmethyl)amino)-2-((8-(1-methyl-1H-pyrazol-5-yl)-2,3-dihydrobenzo[b][1,4]dioxin-5-yl)amino)-7H-pyrrolo[2,3-d] pyrimidine-5-carbonitrile]
< 100 nM | – | – | – | – | < 50 nM | < 100 nM | – | – | – | – | COc1cc(N2CCCCS2(=O)=O)ccc1Nc1nc(NC2CCCC2)c2c(C#N)c[nH]c2n1 [Example 155, 4-(cyclopentylamino)-2-((4-(1,1-dioxido-1,2-thiazinan-2-yl)-2-methoxyphenyl)amino)-7H-pyrrolo[2,3-d] pyrimidine-5-carbonitrile]

The next lines start with the molecule.

SMILES | GI50 [1] | GI50 ([2]; Homo sapiens) | GI50 ([3]; Homo sapiens, BXPC-3) | GI50 ([4]; Homo sapiens, DU-145) | GI50 ([5]; Homo sapiens, HCT-116) | IC50 [6] | GI50 [7] | GI50 [2] | GI50 ([3]; BxPC3) | GI50 ([4]; DU145) | GI50 ([5]; HCT116)
COc1cc(N2CCCC2=O)ccc1Nc1nc(NC2CCCCC2)c2c(C(F)(F)F)c[nH]c2n1 [Example 53, 1-(4-((4-(cyclohexylamino)-5-(trifluoromethy1)-7H-pyrrolo[2,3-d]pyrimidin-2-yl)amino)-3-methoxyphenyl) pyrrolidin-2-one] | 100 to 1000 nM | 100 to 1000 nM | 100 to 1000 nM | 100 to 1000 nM | 100 to 1000 nM | < 50 nM | – | – | – | – | –
COc1cc(N2CCCC2=O)ccc1Nc1nc(NC2CCCCC2)c2c(C#N)c[nH]c2n1 [Example 56, 4-(cyclohexylamino)-2-((2-methoxy-4-(2-oxopyrrolidin-1-yl)phenyl)amino)-7H-pyrrolo[2,3-d] pyrimidine-5-carbonitrile] | < 100 nM | < 100 nM | < 100 nM | < 100 nM | < 100 nM | < 50 nM | < 100 nM | – | – | – | –
COc1cc(N2CCCC2=O)ccc1Nc1nc(NC2CCCC2)c2c(C(F)(F)F)c[nH]c2n1 [Example 52] | – | 100 to 1000 nM | 100 to 1000 nM | 100 to 1000 nM | 100 to 1000 nM | – | – | – | – | – | –
CNc1nc(Nc2ccc(N3CCCC3=O)cc2OC)nc2[nH]cc(C#N)c12 [Example 54, 2-((2-methoxy-4-(2-oxopyrrolidin-1-yl)phenyl)amino)-4-(methylamino)-7H-pyrrolo[2,3-d] pyrimidine-5-carbonitrile] | 100 to 1000 nM | 100 to 1000 nM | 100 to 1000 nM | 100 to 1000 nM | 100 to 1000 nM | 50 to 200 nM | – | – | – | – | –
COc1cc(N2CCCC2=O)ccc1Nc1cc(NC2CCCC2)c2c(C#N)c[nH]c2n1 [Example 63, 4-(cyclopentylamino)-6-((2-methoxy-4-(2-oxopyrrolidin-1-yl)phenyl)amino)-1H-pyrrolo[2,3-b] pyridine-3-carbonitrile] | 100 to 1000 nM | < 100 nM | < 100 nM | < 100 nM | < 100 nM | < 50 nM | – | – | – | – | –
COc1cc(-c2ccnn2C)ccc1Nc1nc(NC2CCCC2)c2c(C(F)(F)F)c[nH]c2n1 [Example 132, N^4-cyclopentyl-N^2-(2-methoxy-4-(1-methyl-1H-pyrazol-5-yl)phenyl)-5-(trifluoromethyl)-7H-pyrrolo[2,3-d] pyrimidine-2,4-diamine] | 100 to 1000 nM | – | – | – | – | 50 to 200 nM | 100 to 1000 nM | – | – | – | –
